Data from patent US10485844B2, “Methods for treating severe atopic dermatitis by administering an IL-4R inhibitor” (Regeneron Pharmaceuticals, Inc., priority 2016, dated 2019).
Entries after “also recorded” stand apart in the source; their conditions may differ.

Legend:
Assay type in all cases: in vivo, human
[1] = system: pediatric patients with moderate-to-severe AD (adolescents) or severe AD (children); assay: Phase 2a open-label ascending-dose study of dupilumab in pediatric AD (efficacy and safety); conditions: for patients who achieved IGA 0-1 / peak pruritus NRS improved by / baseline EASI improved by: Week 12; for baseline EASI improved by: after repeated weekly doses; for reduction in EASI score from baseline: week 2
Description: This Example describes a phase 2a, multicenter, open-label, ascending-dose, sequential-cohort study (NCT02407756) which included adolescents (12-17 years) with moderate-to-severe AD and children (6-11 years) with severe AD, uncontrolled by topical medications. Patients received 2 mg/kg or 4 mg/kg single-dose subcutaneous dupilumab with 8 weeks follow-up, followed by 4 weekly 2 mg/kg or 4 mg/kg doses.
This was conducted as a phase 2a, multicenter, open-label, ascending dose, sequential cohort study investigating the safety, tolerability, pharmacokinetics (PK), immunogenicity, and efficacy of single-dose and repeat-doses of subcutaneously administered (SC) dupilumab in pediatric patients with moderate-to-severe AD (for adolescents ≥12 to <18 years of age) or severe AD (for children ≥6 to <12 years of age) that was not adequately controlled by topical treatments.
Two sequential ascending SC dose cohorts were planned: dose cohort 1 (2 mg/kg) and dose cohort 2 (4 mg/kg) up to a maximum dose of 300 mg. Within each dose cohort, approximately 36 to 40 patients were planned to be enrolled in 2 age subsets: subset A (adolescents ≥12 to <18 years of age) and subset B (children ≥6 to <12 years of age). Enrollment and study dosing started with cohort 1A (2 mg/kg, adolescent age subset) and proceeded in sequence to cohort 1B (2 mg/kg, children ≥6 to <12 years of age subset), cohort 2A (4 mg/kg, adolescent age subset), and cohort 2B (4 mg/kg, children ≥6 to <12 years of age subset); a safety review of data from the previous cohort(s) was performed before proceeding to the next cohort.
The study consisted of a screening period (day −35 to day −1), a baseline visit, Part A (including a single-dose treatment followed by an 8-week semi-dense PK sampling period), and Part B (including a 4-week repeat-dose treatment period [4 weekly doses] followed by an 8-week follow-up period).
Sterile dupilumab drug product 150 mg/mL was provided in an aqueous buffered vehicle, pH 5.0. It was supplied in a 5-mL vial containing 2.5 mL (150 mg/mL) with a withdrawable volume of 2.0 mL or 300 mg of dupilumab. Study drug was administered SC by the investigator or other qualified study personnel at the following dose and dosing schedules: • For dose cohort 1: 2 mg/kg at day 1 as a single dose in Part A, then weekly at day 1 to week 3 in Part B as repeat doses • For dose cohort 2: 4 mg/kg at day 1 as a single dose in Part A, then weekly at day 1 to week 3 in Part B as repeat doses
The primary objective was characterizing the PK profiles of dupilumab in pediatric AD patients aged ≥6 to <18 years. The secondary endpoints were: • Incidence of TEAEs • Percent change from baseline in Eczema Area and Severity Index (EASI) • Percent change from baseline in SCORing Atopic Dermatitis (SCORAD) score • Percent change from baseline in Pruritus Numerical Rating Scale (NRS) • Percentage of patients with an IGA score of 0 or 1 • Change from baseline in % BSA affected by AD Study Variables and Procedures
Safety and tolerability was assessed by vital signs, physical examinations, clinical laboratory tests, and clinical evaluations. Patients were asked to monitor all adverse events (AEs) experienced from the time of informed consent/assent until their last study visit. Serum samples were collected for assay of dupilumab levels, and PK parameters were calculated using the dupilumab concentration data. Serum samples were collected for assay of ADA, and exploratory analyses. Efficacy was assessed during the study at specified clinic visits using the Pruritus NRS, SCORAD, and EASI that measure the extent and severity of AD, and the IGA that rates the overall severity of AD.

[2] = system: adults with moderate-to-severe AD; assay: 1-year placebo-controlled trial of dupilumab + TCS: subgroup analysis by CsA eligibility / CsA history; conditions: for proportion of patients achieving a 75% improvement in EASI / proportion of patients achieving a ≥4-point improvement in peak pruritus numerical rating scale / Patients achieving EASI-75, n (%) / Patients achieving a peak pruritus NRS score improvement ≥4 points from baseline, n/N1 (%): Week 52; for Patients achieving a peak pruritus NRS score improvement ≥4 points from baseline, n/N1 (%): baseline NRS ≥4
Description: Patients were randomized 3:1:3 (dupilumab 300 mg weekly [qw], every two weeks [q2w], or placebo). Patients received concomitant low and/or medium potency TCS, which could be tapered and discontinued based on clinical response. Topical calcineurin inhibitors could be used in areas considered inadvisable for TCS.
In further analysis, the efficacy and safety of dupilumab vs placebo (PBO) at 52 weeks was compared in two patient (pt) subsets of the population: pts who were earlier treated with CsA but responded inadequately or were intolerant to CsA (subset A; n=114) and the remaining study population (subset B; n=509). Subset A pts had, on average, more severe disease than subset B pts, as assessed by Eczema Area and Severity Index (EASI) (mean baseline±SD EASI score 37.0±12.70 vs 31.6±12.77; nominal p<0.0001 [post-hoc analysis]).

[3] = Functional dupilumab concentrations in serum, 52-week trial with TCS; conditions: Week 16
Description: The clinical trial was a 52-week randomized, multicenter, double-blind, placebo-controlled trial of subcutaneous dupilumab with concomitant topical corticosteroids (TCS) in 740 adult patients (NCT02260986) randomized 3:1:3 to placebo, dupilumab 300 mg every 2 weeks (q2w) and dupilumab 300 mg every week (qw); patients randomized to dupilumab received a loading dose of 600 mg. An open-label extension study of dupilumab 300 mg qw (NCT01949311) is ongoing in patients who participated in prior studies and results from 1076 patients treated for up to 68 weeks are also reported. This Example describes functional dupilumab concentrations measured in serum from blood samples at various time-points and analyzed using descriptive statistics.

dupilumab: fully human anti-IL-4R antibody; heavy chain SEQ ID NO: 9, light chain SEQ ID NO: 10
patients who achieved IGA 0-1 ([1]; adolescent 2 mg cohort): 10% | peak pruritus NRS improved by ([1]; adolescent 2 mg cohort): 30.8% | baseline EASI improved by ([1]; adolescent 2 mg cohort): 66.4% | patients who achieved IGA 0-1 ([1]; adolescent 4 mg cohort): 35% | peak pruritus NRS improved by ([1]; adolescent 4 mg cohort): 37.6% | baseline EASI improved by ([1]; adolescent 4 mg cohort): 69.7% | reduction in EASI score from baseline ([1]; adolescent patients, single dose 2 mg/kg): 34% | reduction in EASI score from baseline ([1]; adolescent patients, single dose 4 mg/kg): 51% | patients who achieved IGA 0-1 ([1]; children 2 mg/kg cohort): 16.7% | peak pruritus NRS improved by ([1]; children 2 mg/kg cohort): 41.6% | baseline EASI improved by ([1]; children 2 mg/kg cohort): 76.2% | patients who achieved IGA 0-1 ([1]; children 4 mg cohort): 21.1% | peak pruritus NRS improved by ([1]; children 4 mg cohort): 39.6% | baseline EASI improved by ([1]; children 4 mg cohort): 63.4% | reduction in EASI score from baseline ([1]; children, single dose 2 mg/kg): 37% | reduction in EASI score from baseline ([1]; children, single dose 4 mg/kg): 33% | safety and tolerability ([1]; single and repeated weekly doses of 2 mg/kg and 4 mg/kg, both pediatric age groups): No new safety signals; also recorded: generally safe and well tolerated | treatment-emergent adverse event (TEAE) rate ([2]; CSA-eligible, dupilumab q2w): 87.2% | treatment-emergent adverse event (TEAE) rate ([2]; CSA-eligible, dupilumab qw): 81.7% | treatment-emergent adverse event (TEAE) rate ([2]; CSA-ineligible, dupilumab q2w): 91.7% | treatment-emergent adverse event (TEAE) rate ([2]; CSA-ineligible, dupilumab qw): 88.5% | proportion of patients achieving a 75% improvement in EASI ([2]; CsA-eligible, dupilumab 300 mg q2w + TCS): 69.1% | proportion of patients achieving a 75% improvement in EASI ([2]; CsA-eligible, dupilumab 300 mg qw + TCS): 67.0% | proportion of patients achieving a ≥4-point improvement in peak pruritus numerical rating scale ([2]; CsA-eligible, dupilumab q2w): 53.8% | proportion of patients achieving a ≥4-point improvement in peak pruritus numerical rating scale ([2]; CsA-eligible, dupilumab qw): 39.7% | proportion of patients achieving a 75% improvement in EASI ([2]; CsA-ineligible, dupilumab 300 mg q2w + TCS): 52.4% | proportion of patients achieving a 75% improvement in EASI ([2]; CsA-ineligible, dupilumab 300 mg qw + TCS): 50.0% | proportion of patients achieving a ≥4-point improvement in peak pruritus numerical rating scale ([2]; CsA-ineligible, dupilumab q2w): 42.9% | proportion of patients achieving a ≥4-point improvement in peak pruritus numerical rating scale ([2]; CsA-ineligible, dupilumab qw): 35.6% | Patients achieving EASI-75, n (%) ([2]; Subset A (inadequate response or intolerance to CsA), Dupilumab 300 mg Q2W ± TCS (N = 19)): (52.6) % | Patients achieving a peak pruritus NRS score improvement ≥4 points from baseline, n/N1 (%) ([2]; Subset A, Dupilumab 300 mg Q2W ± TCS): (47.4) % | Patients achieving EASI-75, n (%) ([2]; Subset A, Dupilumab 300 mg QW ± TCS (N = 43)): (48.8) % | Patients achieving a peak pruritus NRS score improvement ≥4 points from baseline, n/N1 (%) ([2]; Subset A, Dupilumab 300 mg QW ± TCS): (38.1) % | Patients achieving EASI-75, n (%) ([2]; Subset B (remaining study population), Dupilumab 300 mg Q2W ± TCS (N = 70)): (68.6) % | Patients achieving a peak pruritus NRS score improvement ≥4 points from baseline, n/N1 (%) ([2]; Subset B, Dupilumab 300 mg Q2W ± TCS): (52.2) % | Patients achieving EASI-75, n (%) ([2]; Subset B, Dupilumab 300 mg QW ± TCS (N = 227)): (67.0) % | Patients achieving a peak pruritus NRS score improvement ≥4 points from baseline, n/N1 (%) ([2]; Subset B, Dupilumab 300 mg QW ± TCS): (39.1) % | mean functional concentration of dupilumab in serum ([3]; 300 mg q2w (600 mg loading dose) with TCS): 80 mg/L | mean functional concentration of dupilumab in serum ([3]; 300 mg qw (600 mg loading dose) with TCS): 185 mg/L
